Read-outs that look alike come from different tables or passages of the source.
Columns and labels:
[1] = biological target: T1, human 20S proteasome ChT-L activity; experiment: 20S proteasome ChT-L activity inhibition assay (Suc-LLVY-AMC); type: biochemical
T1 construct: purchased Boston Biochem
Description: (§1) Purified human 20S proteasome and the fluorogenic substrates Suc-LLVY-AMC, Z-Leu-Leu-Glu-AMC, and Ac-Arg-Leu-Arg-AMC used to test the ChT-L, PGPH-L, and T-L activity, respectively, were purchased from Boston Biochem (Cambridge, MA, USA).
(§2) Proteasome activity assays were performed in vitro by mixing 20S proteasome (2 nM) with 100 μM of the proper fluorogenic peptide in the assay buffer (i.e., 25 mM HEPES, 0.5 mM EDTA, pH 7.6) in a 384 multiwell black plate. […] A minimum of three replicates were performed for each data point. Data are expressed as normalized percentages of residual activity considering the slope of the control (fluorogenic peptide/proteasome in the absence of inhibitors) as 100% of proteasome activity. Dose–response plots of the residual proteasome activity in the presence of increasing concentration of inhibitor provides a quantitative estimate of its potency. […] The estimation of the IC50 is based on a nonlinear fit with the equation:2 [drawing 2]
(§3) The IC50 values and their standard errors were deduced from the fitting. […] The resulting catalytic parameter are Km, corresponding to the apparent affinity constant (or Michaelis–Menten constant) of substrate for the free enzyme (to form the ES complex), and kcat, corresponding to the velocity of the rate-limiting step during the enzymatic activity. […] The mechanism of inhibition of the 20S proteasome ChT-L activity by the inhibitors was analyzed by modified double-reciprocal plot, as from the following equations for the different inhibitory mechanisms:4a [drawing 4]

[2] = biological target: T2, human 20S proteasome T-L activity; experiment: 20S proteasome T-L activity inhibition assay (Ac-Arg-Leu-Arg-AMC); type: biochemical
T2 construct: purchased Boston Biochem
Description: as §1, §2, §3

[3] = biological target: T3, human 20S proteasome PGPH-L activity; experiment: 20S proteasome PGPH-L activity inhibition assay (Z-Leu-Leu-Glu-AMC); type: biochemical
T3 construct: purchased Boston Biochem
Description: as §1, §2, §3

[4] = system: T1, human 20S proteasome ChT-L activity; experiment: Steady-state enzyme kinetics of ChT-L inhibition (Lineweaver-Burk plot); type: biochemical
Source text: Analysis of enzyme kinetics may provide valuable insights in the understanding of inhibition mechanisms. To this aim, we have addressed the inhibition mechanism of the title compound H2T4 by determining the ChT-L activity of the CP at different concentrations of substrate and inhibitor. Since H2T4 inhibits all the three proteolytic functions of the CP with a similar potency, one can assume that the inhibition mechanism is similar for all enzymatic activities.
Fig. 6 Double reciprocal Lineweaver–Burk plot of substrate enzymatic 20S processing in the absence of inhibitor (○) and in the presence of 0.5 μM (×), 1 μM (+), 3 μM (*), 10 μM (⊗) and 20 μM inhibitor (⊕) for various concentrations of the substrate Suc-LLVY-AMC (from 6 to 100 μM).
The IC50 values and their standard errors were deduced from the fitting. Data relative to CP activities at different substrate/inhibitor concentrations have been analyzed by a double reciprocal Lineweaver–Burk plot, according to the following equation:3 [drawing 3] where [E0] is the enzyme concentration, ν is the observed velocity (expressed as moles of substrate cleaved per time interval unit) and [S] is the substrate concentration. […] The mechanism of inhibition of the 20S proteasome ChT-L activity by the inhibitors was analyzed by modified double-reciprocal plot, as from the following equations for the different inhibitory mechanisms:4a [drawing 4] […]

[5] = system: T1, human 20S proteasome ChT-L activity; experiment: Pre-steady-state kinetics of ChT-L inhibition (time course of fluorescent product, Runge-Kutta simulation); type: biochemical; conditions: 2 nM 20S, 100 μM Suc-LLVY-AMC; constrained to KI = k–I/k+I
Description: The kinetic parameters of H2T4 binding to the CP have also been determined as a function of time (as described in Experimental). Fig. 7 reports the time evolution of the fluorescent product obtained by mixing at t = 0 both the substrate (100 μM final concentration) and H2T4 at different concentrations, as reported in the figure legend; the fluorescent signal was transformed into molar concentrations of fluorescent product through a calibration curve resulting from the complete processing of known concentration of substrate. […]
The interaction of H2T4 with 20S proteasome has been also investigated from the pre-steady-state kinetic standpoint. Briefly, these assays were performed without incubation time, by direct addition of different concentrations of H2T4 in samples where the Ch-L activity was already being monitored. The extent and the rate of inhibition were determined by following the time-dependent fluorescent signal of the cleaved substrate for 25 additional minutes. Data have been analyzed according to a second-order Runge–Kutta simulation procedure based on a simple competitive inhibition mechanism, such as in Scheme 1.
The time evolution of each species reported in Scheme 1 was calculated at discrete time intervals dt. […]

20S proteasome = system: T4, 20S proteasome; experiment: Stopped-flow UV spectroscopy of H2T4 binding to 20S proteasome; parameters: species or system human; conditions: 421 nm, 37 °C
T4 construct: purchased Boston Biochem
Source text: In order to find a closer correlation between experimental observations and molecular modeling we have carried out a kinetic investigation of the interaction between H2T4 and 20S proteasome by stopped-flow. […] Data have been analyzed according to the following equation1 [drawing 1] where ΔODobs is the observed optical density change at a given time, r is the total number of exponentials during the reaction time course, ΔODi is the optical density change corresponding to the exponential i, ki is the rate constant associated to the exponential i, t is the time.
Fig. 11 Optical density changes at 421 nm for the mixing at 37 °C of 1 nM 20S proteasome with different concentrations of H2T4, namely 1 μM (curve a), 2 μM (curve b) and 5 μM (curve c). Continuous lines correspond to the non-linear least-squares fitting of data with two exponentials according to eqn (1), employing parameters reported in Table 1.
However, it is important to outline that kinetics reported in Fig. 11 are characterized by a multiphasic pattern with different patterns of concentration dependence of the rate constants. […] Therefore, on the basis of molecular modeling studies, these kinetic data can be accounted for by assuming that there is a first faster interaction with the N-terminal tails of the α subunits, characterized by k1, likely corresponding to the first encountering of the porphyrin with the α-subunits plane in a perpendicular geometry (Fig. 10A). […] The values ≈0 for the dissociation rate constants (Table 1) simply means that the rate is very slow and the interaction is very strong.

[6] = read-out: IC50 ChT-L (Figure S1), figure inset, semi-log plot of residual CP activity
[7] = read-out: IC50 best-fit value, ChT-L activity (Table S1), nonlinear fit of dose-response plot
[8] = read-out: IC50 T-L (Figure S1), figure inset, semi-log plot of residual CP activity
[9] = read-out: IC50 best-fit value, T-L activity (Table S1), nonlinear fit of dose-response plot
[10] = read-out: IC50 PGPH-L (Figure S1), figure inset, semi-log plot of residual CP activity
[11] = read-out: IC50 best-fit value, PGPH-L activity (Table S1), nonlinear fit of dose-response plot

| Compound | IC50 [1, 6] | IC50 [1, 7] | IC50 [2, 8] | IC50 [2, 9] | IC50 [3, 10] | IC50 [3, 11] | inhibition mechanism ([4]; Lineweaver-Burk plot) | Ki ([4]; read-out: inhibitor affinity constant KI, Suc-LLVY-AMC 6 to 100 μM, fit with eqn (4a)) | k+I [5] | k–I [5] | off k1 (20S proteasome; 1 nM 20S, 1-5 μM H2T4) | off k2 (20S proteasome; 1 nM 20S, 1-5 μM H2T4) | on k1 (20S proteasome; 1 nM 20S, 1-5 μM H2T4) | on k2 (20S proteasome; 1 nM 20S, 1-5 μM H2T4) | k3 (20S proteasome; rate independent of porphyrin concentration) |
| --- | --- | --- | --- | --- | --- | --- | --- | --- | --- | --- | --- | --- | --- | --- | --- |
| C[n+]1ccc(-c2c3nc(c(-c4cc[n+](C)cc4)c4ccc([nH]4)c(-c4cc[n+](C)cc4)c4nc(c(-c5cc[n+](C)cc5)c5ccc2[nH]5)C=C4)C=C3)cc1 [H2T4, meso-tetrakis(4-N-methylpyridyl)-porphyrin] | 470 nM | 469 nM | 460 nM | 466 nM | 300 nM | 301 nM | competitive mechanism | 360 nM | 1.3 × 10^4 M^–1 s^–1 | 4.7 × 10^–3 s^–1 | ∼0 s^–1 | ∼0 s^–1 | 5.65 (±0.74) × 10^4 M^–1 s^–1 | 1.28 (±0.31) × 10^4 M^–1 s^–1 | 3.23 (±0.81) × 10^–3 s^–1 |
| C[n+]1cccc(-c2c3nc(c(-c4ccc[n+](C)c4)c4ccc([nH]4)c(-c4ccc[n+](C)c4)c4nc(c(-c5ccc[n+](C)c5)c5ccc2[nH]5)C=C4)C=C3)c1 [meta-H2T4, meso-tetra(3-N-metil-pyridyl) porphyrin] | 930 nM | 931 nM | 1160 nM | 1160 nM | 210 nM | 211 nM | – | – | – | – | – | – | – | – | – |
